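Dose response: 5 concentrations. Exposure: 48 h. Format: 96-well plates. Endpoint: linear interpolation; highest concentration if not reached. The concentration for 50% growth inhibition is given as GI50. TGI marks complete inhibition of growth.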
What was measured:
Test in all cases: NCI-60 cell line screen, 48 h
[1] = tested on: 786-0 renal
[2] = tested on: A498 renal
[3] = tested on: A549 NSCLC
[4] = tested on: ACHN renal
[5] = tested on: BT-549 breast
[6] = tested on: CAKI-1 renal
[7] = tested on: CCRF-CEM leukemia
[8] = tested on: COLO 205 colon
[9] = tested on: DU-145 prostate
[10] = tested on: EKVX NSCLC
[11] = tested on: HCT-116 colon
[12] = tested on: HCT-15 colon
[13] = tested on: HL-60(TB) leukemia
[14] = tested on: HOP-62 NSCLC
[15] = tested on: HOP-92 NSCLC
[16] = tested on: HS 578T breast
[17] = tested on: HT29 colon
[18] = tested on: IGROV1 ovarian
[19] = tested on: KM12 colon
[20] = tested on: LOX IMVI melanoma
[21] = tested on: M14 melanoma
[22] = tested on: MALME-3M melanoma
[23] = tested on: MCF7 breast
[24] = tested on: MDA-MB-231 breast
[25] = tested on: MDA-MB-435
[26] = tested on: MOLT-4 leukemia
[27] = tested on: NCI-H226 lung
[28] = tested on: NCI-H23 lung
[29] = tested on: NCI-H460 lung
[30] = tested on: NCI-H522 lung
[31] = tested on: NCI/ADR-RES ovarian
[32] = tested on: OVCAR-3 ovarian
[33] = tested on: OVCAR-4 ovarian
[34] = tested on: OVCAR-5 ovarian
[35] = tested on: OVCAR-8 ovarian
[36] = tested on: PC-3 prostate
[37] = tested on: RPMI-8226 leukemia
[38] = tested on: RXF 393 renal
[39] = tested on: SF-268 CNS
[40] = tested on: SF-295 CNS
[41] = tested on: SF-539 CNS
[42] = tested on: SK-MEL-2 melanoma
[43] = tested on: SK-OV-3 ovarian
[44] = tested on: SNB-19 CNS
[45] = tested on: SNB-75 CNS
[46] = tested on: SR leukemia
[47] = tested on: SW-620 colon
[48] = tested on: T-47D breast
[49] = tested on: TK-10 renal
[50] = tested on: U251 CNS
[51] = tested on: UACC-257 melanoma
[52] = tested on: UO-31 renal

## COc1ccc2nc3cc(Cl)ccc3c(NCCCNCCC(C)O)c2c1 (centres undefined)
[1]
  GI50: 472 nM
  TGI: 1940 nM
[2]
  GI50: 420 nM
  TGI: 1540 nM
[3]
  GI50: 422 nM
  TGI: 2120 nM
[4]
  GI50: 192 nM
  TGI: 1680 nM
[5]
  GI50: 1730 nM
  TGI: 4130 nM
[6]
  GI50: 735 nM
  TGI: 3430 nM
[7]
  GI50: 361 nM
  TGI: 2610 nM
[8]
  GI50: 217 nM
  TGI: 1290 nM
[9]
  GI50: 302 nM
  TGI: 1240 nM
[10]
  GI50: 473 nM
  TGI: 2410 nM
[11]
  GI50: 56.9 nM
  TGI: 1540 nM
[12]
  GI50: 735 nM
  TGI: 3600 nM
[13]
  GI50: 1650 nM
  TGI: 3920 nM
[14]
  GI50: 389 nM
  TGI: 2350 nM
[15]
  GI50: 535 nM
  TGI: 2760 nM
[16]
  GI50: 1050 nM
  TGI: 3620 nM
[17]
  GI50: 172 nM
  TGI: 1250 nM
[18]
  GI50: 390 nM
  TGI: 2470 nM
[19]
  GI50: 408 nM
  TGI: 1980 nM
[20]
  GI50: 356 nM
  TGI: 1460 nM
[21]
  GI50: 590 nM
  TGI: 2020 nM
[22]
  GI50: 714 nM
  TGI: 2210 nM
[23]
  GI50: 351 nM
  TGI: 1720 nM
[24]
  GI50: 203 nM
  TGI: 1370 nM
[25]
  GI50: 504 nM
  TGI: 1790 nM
[26]
  GI50: 119 nM
  TGI: 1580 nM
[27]
  GI50: 943 nM
  TGI: 3110 nM
[28]
  GI50: 360 nM
  TGI: 2100 nM
[29]
  GI50: 178 nM
  TGI: 561 nM
[30]
  GI50: 196 nM
  TGI: 750 nM
[31]
  GI50: 2460 nM
  TGI: 15500 nM
[32]
  GI50: 368 nM
  TGI: 1680 nM
[33]
  GI50: 282 nM
  TGI: 1040 nM
[34]
  GI50: 331 nM
  TGI: 2460 nM
[35]
  GI50: 426 nM
  TGI: 2540 nM
[36]
  GI50: 496 nM
  TGI: 2350 nM
[37]
  GI50: 575 nM
  TGI: 3090 nM
[38]
  GI50: 414 nM
  TGI: 1740 nM
[39]
  GI50: 523 nM
  TGI: 2520 nM
[40]
  GI50: 276 nM
  TGI: 1630 nM
[41]
  GI50: 345 nM
  TGI: 1490 nM
[42]
  GI50: 704 nM
  TGI: 2250 nM
[43]
  GI50: 465 nM
  TGI: 2620 nM
[44]
  GI50: 423 nM
  TGI: 2690 nM
[45]
  GI50: 568 nM
  TGI: 1930 nM
[46]
  GI50: 156 nM
  TGI: 1740 nM
[47]
  GI50: 234 nM
  TGI: 2250 nM
[48]
  GI50: 1040 nM
  TGI: 4040 nM
[49]
  GI50: 497 nM
  TGI: 2940 nM
[50]
  GI50: 495 nM
  TGI: 2340 nM
[51]
  GI50: 1630 nM
  TGI: 3430 nM
[52]
  GI50: 1110 nM
  TGI: 3270 nM

From PubChem BioAssay (NCI)
